Results published in PubChem BioAssay AID330 (DTP/NCI, 2004).
“And” between values parts separate entries of the source, which are not always exact repeats. Equal values may be shown once. Toxic doses and inconclusive results are not listed.

Test system: P388 leukemia ip, CD2F1 mice, survival T/C
Experiment: NCI In Vivo Anticancer Drug Screen. Data for tumor model P388 Leukemia (intraperitoneal) in CD2F1 (CDF1) mice
Details: endpoint: median survival time, higher = longer survival
Procedure, shortened: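 Mice carrying the transplanted tumor received test compound or vehicle. Survival was recorded in each group, and the value is the treated-group measurement divided by that of the vehicle-treated control group.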

[1] = dose: 100.0 mg/kg/injection, schedule: Q04DX003 (ip), vehicle: Klucel (hydroxypropylcellulose) (HPC)
[2] = dose: 200.0 mg/kg/injection, schedule: Q04DX003 (ip), vehicle: Klucel (hydroxypropylcellulose) (HPC)
[3] = dose: 12.5 mg/kg/injection, schedule: Q04DX003 (ip), vehicle: saline with Tween-80
[4] = dose: 25.0 mg/kg/injection, schedule: Q04DX003 (ip), vehicle: saline with Tween-80
[5] = dose: 50.0 mg/kg/injection, schedule: Q04DX003 (ip), vehicle: saline with Tween-80
[6] = dose: 100.0 mg/kg/injection, schedule: Q04DX003 (ip), vehicle: saline with Tween-80

For O=CNC(Cc1ccc(N(CCCl)CCCl)cc1)C(=O)O (configuration not stated), the T/C (dose: 6.25 mg/kg/injection, schedule: Q01DX009 (ip), vehicle: saline sonified) was 159 % of control, the T/C (dose: 6.6 mg/kg/injection, schedule: Q04DX003 (ip), vehicle: saline) was 170 % of control and the T/C (dose: 10.0 mg/kg/injection, schedule: Q04DX003 (ip), vehicle: saline) was 160 % of control. For the same compound, the T/C (dose: 12.5 mg/kg/injection, schedule: Q01DX009 (ip), vehicle: saline sonified) was 168 % of control, the T/C (dose: 15.0 mg/kg/injection, schedule: Q04DX003 (ip), vehicle: saline) was 170 % of control and the T/C (dose: 25.0 mg/kg/injection, schedule: Q01DX009 (ip), vehicle: saline sonified) was 213 % of control.
With CC(=O)OCCOCNC(=S)NN1CCOCC1 the T/C (dose: 60.0 mg/kg/injection, schedule: Q01DX005 (ip), vehicle: saline with Tween-80) was 100 % of control, the T/C (dose: 120.0 mg/kg/injection, schedule: Q01DX005 (ip), vehicle: saline with Tween-80) was 95 % of control and the T/C (dose: 240.0 mg/kg/injection, schedule: Q01DX005 (ip), vehicle: saline with Tween-80) was 100 % of control.
S=P1(Oc2ccccc2)Nc2cccc3cccc(c23)N1 was tested, and the T/C (dose: 25.0 mg/kg/injection, schedule: Q01DX005 (ip), vehicle: Klucel (hydroxypropylcellulose) (HPC)) was 98 % of control, the T/C (dose: 50.0 mg/kg/injection, schedule: Q01DX005 (ip), vehicle: Klucel (hydroxypropylcellulose) (HPC)) was 106 % of control and the T/C (dose: 100.0 mg/kg/injection, schedule: Q01DX005 (ip), vehicle: Klucel (hydroxypropylcellulose) (HPC)) was 102 % of control. The T/C (dose: 200.0 mg/kg/injection, schedule: Q01DX005 (ip), vehicle: Klucel (hydroxypropylcellulose) (HPC)) was 103 % of control.
NC(=O)CCCC(C(N)=O)(c1ccccc1)c1ccccc1 was tested, and the T/C (dose: 100.0 mg/kg/injection, schedule: Q01DX001 (ip), vehicle: Klucel (hydroxypropylcellulose) (HPC)) was 101 % of control, the T/C (dose: 200.0 mg/kg/injection, schedule: Q01DX001 (ip), vehicle: Klucel (hydroxypropylcellulose) (HPC)) was 100 % of control and the T/C (dose: 400.0 mg/kg/injection, schedule: Q01DX001 (ip), vehicle: Klucel (hydroxypropylcellulose) (HPC)) was 100 % of control.
In the case of O=C(CCl)N1c2ccc3ccccc3c2Sc2ccc3ccccc3c21, the T/C (dose: 6.25 mg/kg/injection, schedule: Q01DX005 (ip), vehicle: saline with Tween-80) is reported as 96 % of control, the T/C (dose: 12.5 mg/kg/injection, schedule: Q01DX005 (ip), vehicle: saline with Tween-80) is reported as 101 % of control and the T/C (dose: 25.0 mg/kg/injection, schedule: Q01DX005 (ip), vehicle: saline with Tween-80) is reported as 95 % of control. For the same compound, the T/C (dose: 50.0 mg/kg/injection, schedule: Q01DX005 (ip), vehicle: saline with Tween-80) was 98 % of control, the T/C (dose: 100.0 mg/kg/injection, schedule: Q01DX005 (ip), vehicle: saline with Tween-80) was 97 % of control and the T/C (dose: 200.0 mg/kg/injection, schedule: Q01DX005 (ip), vehicle: saline with Tween-80) was 105 % of control.
c1ccc(-c2cc3nccnc3[nH]2)cc1 was tested, and the T/C (dose: 15.0 mg/kg/injection, schedule: Q01DX005 (ip), vehicle: Klucel (hydroxypropylcellulose) (HPC)) was 100 % of control, the T/C (dose: 30.0 mg/kg/injection, schedule: Q01DX005 (ip), vehicle: Klucel (hydroxypropylcellulose) (HPC)) was 92 % of control and the T/C (dose: 60.0 mg/kg/injection, schedule: Q01DX005 (ip), vehicle: Klucel (hydroxypropylcellulose) (HPC)) was 87 % of control and 89 % of control. For the same compound, the T/C (dose: 120.0 mg/kg/injection, schedule: Q01DX005 (ip), vehicle: Klucel (hydroxypropylcellulose) (HPC)) was 97 % of control.
O=C1C2C=CC(c3ccccc32)N1/C=C/c1ccccc1 (configuration not stated) was tested, and the T/C [1] was 101 % of control, the T/C [2] was 99 % of control and the T/C (dose: 400.0 mg/kg/injection, schedule: Q04DX003 (ip), vehicle: Klucel (hydroxypropylcellulose) (HPC)) was 97 % of control.
With O=C1C=C2CCC3=CC(=O)C(=CC3=O)CCC(=C1)C2=O the T/C (dose: 100.0 mg/kg/injection, schedule: Q04DX002 (ip), vehicle: Klucel (hydroxypropylcellulose) (HPC)) was 97 % of control and the T/C (dose: 200.0 mg/kg/injection, schedule: Q04DX002 (ip), vehicle: Klucel (hydroxypropylcellulose) (HPC)) was 97 % of control.
For O=C(c1ccccc1)C(C(=O)c1ccccc1)C(c1ccccc1)(c1ccccc1)c1ccccc1, the T/C [3] was 97 % of control, the T/C [4] was 99 % of control and 98 % of control and the T/C [5] was 87 % of control. For the same compound, the T/C [6] was 90 % of control and 91 % of control and the T/C (dose: 400.0 mg/kg/injection, schedule: Q04DX003 (ip), vehicle: saline with Tween-80) was 88 % of control.
In the case of COc1ccc2nc(C)cc(N/N=C/c3ccc(N(CCCl)CCCl)cc3)c2c1, the T/C (dose: 0.78 mg/kg/injection, schedule: Q01DX009 (ip), vehicle: Klucel (hydroxypropylcellulose) (HPC)) is reported as 105 % of control, the T/C (dose: 1.56 mg/kg/injection, schedule: Q01DX009 (ip), vehicle: Klucel (hydroxypropylcellulose) (HPC)) is reported as 103 % of control and the T/C (dose: 3.12 mg/kg/injection, schedule: Q01DX009 (ip), vehicle: Klucel (hydroxypropylcellulose) (HPC)) is reported as 90 % of control and 98 % of control. For the same compound, the T/C (dose: 6.25 mg/kg/injection, schedule: Q01DX009 (ip), vehicle: Klucel (hydroxypropylcellulose) (HPC)) was 90 % of control and the T/C (dose: 25.0 mg/kg/injection, schedule: Q01DX009 (ip), vehicle: Klucel (hydroxypropylcellulose) (HPC)) was 90 % of control.
COc1ccc2c(c1)N(CCC1CCCCN1C)c1ccccc1S2 (configuration not stated) was tested, and the T/C (dose: 12.5 mg/kg/injection, schedule: Q04DX003 (ip), vehicle: saline) was 116 % of control, the T/C (dose: 25.0 mg/kg/injection, schedule: Q04DX003 (ip), vehicle: saline) was 115 % of control and the T/C (dose: 50.0 mg/kg/injection, schedule: Q04DX003 (ip), vehicle: saline) was 119 % of control.
For OCC1OC(n2cnc3c(SCc4ccccn4)ncnc32)C(O)C1O (configuration not stated), the T/C [3] was 109 % of control, the T/C [4] was 96 % of control and the T/C [5] was 99 % of control. For the same compound, the T/C [6] was 96 % of control.
With O=C(O)CCCCC1CCSS1 (configuration not stated) the T/C (dose: 15.63 mg/kg/injection, schedule: Q01DX005 (ip), vehicle: Klucel (hydroxypropylcellulose) (HPC)) was 103 % of control, the T/C (dose: 31.25 mg/kg/injection, schedule: Q01DX005 (ip), vehicle: Klucel (hydroxypropylcellulose) (HPC)) was 103 % of control and the T/C (dose: 62.5 mg/kg/injection, schedule: Q01DX005 (ip), vehicle: Klucel (hydroxypropylcellulose) (HPC)) was 94 % of control. For the same compound, the T/C (dose: 125.0 mg/kg/injection, schedule: Q01DX005 (ip), vehicle: Klucel (hydroxypropylcellulose) (HPC)) was 97 % of control.
In the case of O=C1C2OC2C(O)(CCN(Cc2ccc3c(c2)OCO3)C(=O)C(F)(F)F)C2OC12 (configuration not stated), the T/C (dose: 6.25 mg/kg/injection, schedule: Q01DX001 (ip), vehicle: saline) is reported as 104 % of control, the T/C (dose: 12.5 mg/kg/injection, schedule: Q01DX001 (ip), vehicle: saline) is reported as 105 % of control and the T/C (dose: 25.0 mg/kg/injection, schedule: Q01DX001 (ip), vehicle: saline) is reported as 106 % of control.
In the case of COC(=O)C1(C)CCCC2(C)C3=C(CCC12)C(=O)c1occc1CC3 (configuration not stated), the T/C (dose: 0.37 mg/kg/injection, schedule: Q01DX009 (ip), vehicle: Klucel (hydroxypropylcellulose) (HPC)) is reported as 100 % of control, the T/C (dose: 0.75 mg/kg/injection, schedule: Q01DX009 (ip), vehicle: Klucel (hydroxypropylcellulose) (HPC)) is reported as 103 % of control and the T/C (dose: 1.5 mg/kg/injection, schedule: Q01DX009 (ip), vehicle: Klucel (hydroxypropylcellulose) (HPC)) is reported as 100 % of control. The T/C (dose: 3.0 mg/kg/injection, schedule: Q01DX009 (ip), vehicle: Klucel (hydroxypropylcellulose) (HPC)) was 99 % of control and the T/C (dose: 6.0 mg/kg/injection, schedule: Q01DX009 (ip), vehicle: Klucel (hydroxypropylcellulose) (HPC)) was 108 % of control.
For Cl/N=C1/C=CC(Cl)=C/C1=N/Cl, the T/C (dose: 25.0 mg/kg/injection, schedule: Q01DX005 (ip), vehicle: saline) was 100 % of control and 101 % of control, the T/C (dose: 50.0 mg/kg/injection, schedule: Q01DX005 (ip), vehicle: saline) was 101 % of control and 102 % of control and 115 % of control and the T/C (dose: 100.0 mg/kg/injection, schedule: Q01DX005 (ip), vehicle: saline) was 105 % of control and 106 % of control and 120 % of control. The T/C (dose: 200.0 mg/kg/injection, schedule: Q01DX005 (ip), vehicle: saline) was 98 % of control and 101 % of control and 110 % of control.
With Cn1nnnc1CCN(CCN(CCc1nnnn1C)/N=C\c1ccccc1)/N=C\c1ccccc1 the T/C (dose: 50.0 mg/kg/injection, schedule: Q04DX003 (ip), vehicle: Klucel (hydroxypropylcellulose) (HPC)) was 95 % of control, the T/C [1] was 95 % of control and the T/C [2] was 96 % of control.
